Values quoted from earlier work in US20200276209A1, “METHODS OF TREATING EPILEPSY OR STATUS EPILEPTICUS” (Sage Therapeutics, Inc., priority 2017, published 2020).
Like-named read-outs stand apart in the source and are kept apart here.

Tested on: status epilepticus

Structure (SMILES)	patients who did not respond to first line treatment (intramuscular (IM) treatment)	patients who did not respond to first line treatment (intravenous (IV) treatment)
Cc1ncc2n1-c1ccc(Cl)cc1C(c1ccccc1F)=NC2 [midazolam]	26.6%	
O=C1Nc2ccc(Cl)cc2C(c2ccccc2Cl)=NC1O (centres unmarked) [lorazepam]		36.6%
